Test results from patent US9987279B2, “Pharmaceutical composition for prevention and/or treatment of urinary incontinence” (ASTELLAS PHARMA INC., priority 2014, dated 2018).

Experiments:
[1] = test system: stress urinary incontinence; conditions: clinical study; cited from earlier work
[2] = test system: external urethral sphincter of extracted rat urethra; test: External urethral sphincter contractile response induced by transmural electrical stimulation using extracted rat urethra; conditions: extracted rat urethra strips, 10 or 30 μmol/L, 15 minutes after addition, transmural electrical stimulation 20 V, 20 Hz; FIG. 1
[3] = test system: SD female rats; test: Reaction increasing urethra internal pressure induced by electrical stimulation of rat pudendal nerve; type: in vivo; conditions: anesthetized SD female rats, 3 or 10 mg/kg intravenously, about three minutes after administration; FIG. 2
Protocol: Test to Evaluate Reinforcing Action of Compound A on Reaction Increasing Urethra Internal Pressure Induced by Electrical Stimulation of Rat Pudendal Nerve
SD female rats (Japan SLC, Inc.) having a body weight of 200-350 g were anesthetized with urethane (1.2 g/kg, sc; Sigma-Aldrich), and a catheter (PE-50; Becton Dickinson) was lodged in the jugular vein for administering the test substance. Laparotomies were performed, and the dome of the bladder was cut open to allow discharge of the urine in the bladder. A microchip pressure transducer catheter (3.5Fr; Millar Instruments) was inserted from the external urethral orifice toward the bladder to measure the urethra internal pressure. The rats were arranged prone, the back was cut open, and several left and right pudendal nerves were isolated and held in place with exciting electrodes. […] The average of the reactions increasing urethra internal pressure by electrical stimulation three times before administering the test substance was calculated as the level before administering the test substance, and the percentage of reaction increasing urethra internal pressure by electrical stimulation about three minutes after administering the test substance to the value before administering the test substance was calculated for each of the treatment groups.

[4] = test system: rat diaphragm myofibrils; conditions: cited from earlier work
[5] = test system: rat extensor digitorum longus muscle; conditions: rat extensor digitorum longus muscle including a fast-muscle component; cited from earlier work
[6] = test system: rat diaphragm; conditions: in vitro, transmural electrical stimulation; cited from earlier work
[7] = test system: rat extensor digitorum longus muscle; conditions: in vivo, electrical stimulation of the rat fibular nerve; cited from earlier work
[8] = preclinical study; cited from earlier work

## CCOc1ccccc1O[C@@H](c1ccccc1)[C@@H]1CNCCO1 [(S,S)-reboxetine]
[1]
  efficacy on stress urinary incontinence: effective for stress urinary incontinence
  urethral resistance: increased urethral resistance

## NC(=O)c1ccn(-c2cnc(NC[C@]3(c4ncccc4F)C[C@H](F)C3)nc2)c1 [Compound A, 1-[2-({[trans-3-fluoro-1-(3-fluoropyridin-2-yl)cyclobutyl]methyl}amino)pyrimidin-5-yl]-1H-pyrrole-3-carboxamide]
[2]
  contractile response of the external urethral sphincter after adding test substance relative to before adding: reinforced contractile response of the external urethral sphincter
[3]
  reaction increasing urethra internal pressure after administration relative to before administration: reinforced a reaction increasing urethra internal pressure
[4]
  shift of concentration-response curve of intracellular calcium ions concentration and muscle tension: shift the concentration-response curve of intracellular calcium ions concentration and muscle tension to the left
[5]
  shift of concentration-response curve of intracellular calcium ions concentration and muscle tension: shift the concentration-response curve of intracellular calcium ions concentration and muscle tension to the left
[6]
  contractile response of rat diaphragm: reinforcing the contractile response of a rat diaphragm
[7]
  extensor digitorum longus muscle contractile response: reinforcing extensor digitorum longus muscle contractile response

## CNCC[C@H](Oc1cccc2ccccc12)c1cccs1 [duloxetine]
[1]
  adverse drug reactions: undesirable adverse drug reactions such as suicide attempts were reported
  efficacy on stress urinary incontinence: effective on stress urinary incontinence

## CNCCC(Oc1ccccc1OC)c1ccccc1 (stereo not drawn) [nisoxetine]
[8]
  incontinence induced by sneezing: improved incontinence induced by sneezing
  urethra internal pressure: increased urethra internal pressure
